Organism: Rattus norvegicus
Assay: DrugMatrix - Regimen: Daily Repeat
Type: toxicity, organism-based, Sprague-Dawley
Set-up: regimen Daily Repeat, gender Male, age 6-8 weeks
Details: in vivo, po, route oral GAVAGE, vehicle .5 % CMC; for ALANINE AMINOTRANSFERASE / ALBUMIN / ALKALINE PHOSPHATASE / ASPARTATE AMINOTRANSFERASE / BLOOD UREA NITROGEN / CHLORIDE / CHOLESTEROL / CREATINE PHOSPHOKINASE / CREATININE / GLUCOSE / LACTATE DEHYDROGENASE / LIPASE / PHOSPHORUS / POTASSIUM / SODIUM / TOTAL BILIRUBIN / TOTAL PROTEIN / URIC ACID: tissue Plasma
[1] = 0.0007 mg/kg, 2184 h, tissue Blood, dose level Low, time 91 day
[2] = 0.0007 mg/kg, 2184 h, dose level Low, time 91 day
[3] = 0.0007 mg/kg, […], tissue Blood, dose level Low, time 28 day
[4] = 0.0007 mg/kg, […], dose level Low, time 28 day
[5] = 0.001 mg/kg, 72 h, tissue Blood, dose level M1, time 3 day
[6] = 0.001 mg/kg, 72 h, dose level M1, time 3 day
[7] = 0.001 mg/kg, 120 h, tissue Blood, dose level M1, time 5 day
[8] = 0.001 mg/kg, 120 h, dose level M1, time 5 day
[9] = 0.02 mg/kg, 72 h, tissue Blood, dose level High, time 3 day
[10] = 0.02 mg/kg, 72 h, dose level High, time 3 day
[11] = 0.02 mg/kg, 120 h, tissue Blood, dose level High, time 5 day
[12] = 0.02 mg/kg, 120 h, dose level High, time 5 day

Clc1cc2c(cc1Cl)Oc1cc(Cl)c(Cl)cc1O2 [2,3,7,8-TETRACHLORODIBENZO-P-DIOXIN]
EOSINOPHIL [1]: 1.12% | ERYTHROCYTE COUNT [1]: 9.38 x10E6/uL | HEMATOCRIT [1]: 50.34% | HEMOGLOBIN [1]: 16.79 G/DL | LEUKOCYTE COUNT [1]: 13.03 x10E3/uL | LYMPHOCYTE [1]: 77.67% | MEAN CORPUSCULAR HEMOGLOBIN [1]: 17.96 pg | MEAN CORPUSCULAR HEMOGLOBIN CONCENTRATION [1]: 33.34 G/DL | MEAN CORPUSCULAR VOLUME [1]: 53.81 fL | MONOCYTE [1]: 2.14% | NEUTROPHIL [1]: 16.55% | PLATELET COUNT [1]: 1320.7 x10E3/uL | ALANINE AMINOTRANSFERASE [2]: 26.9 u/L | ALBUMIN [2]: 3.75 G/DL | ALKALINE PHOSPHATASE [2]: 85.3 u/L | ASPARTATE AMINOTRANSFERASE [2]: 64.6 u/L | BLOOD UREA NITROGEN [2]: 14.9 mg/dL | CHLORIDE [2]: 103.1 MEQ/L | CHOLESTEROL [2]: 55.9 mg/dL | CREATINE PHOSPHOKINASE [2]: 76.1 u/L | CREATININE [2]: 0.51 mg/dL | GLUCOSE [2]: 150.6 mg/dL | LACTATE DEHYDROGENASE [2]: 36.1 u/L | LIPASE [2]: 15.1 u/L | PHOSPHORUS [2]: 7.88 mg/dL | POTASSIUM [2]: 6.11 MEQ/L | SODIUM [2]: 151 MEQ/L | TOTAL BILIRUBIN [2]: 0.2 mg/dL | TOTAL PROTEIN [2]: 7.13 G/DL | URIC ACID [2]: 0.79 mg/dL | ABSOLUTE BASOPHIL [3]: 72 cells/µL | ABSOLUTE EOSINOPHIL [3]: 54 cells/µL | ABSOLUTE LYMPHOCYTE [3]: 9720 cells/µL | ABSOLUTE MONOCYTE [3]: 220 cells/µL | ABSOLUTE SEGMENTED NEUTROPHIL [3]: 1340 cells/µL | BASOPHIL [3]: 0.62% | EOSINOPHIL [3]: 0.5% | ERYTHROCYTE COUNT [3]: 8.2 x10E6/uL | HEMATOCRIT [3]: 46.2% | HEMOGLOBIN [3]: 15.3 G/DL | LEUKOCYTE COUNT [3]: 11.47 x10E3/uL | LYMPHOCYTE [3]: 84.6% | MEAN CORPUSCULAR HEMOGLOBIN [3]: 18.64 pg | MEAN CORPUSCULAR HEMOGLOBIN CONCENTRATION [3]: 33.1 G/DL | MEAN CORPUSCULAR VOLUME [3]: 56.34 fL | MONOCYTE [3]: 1.94% | NEUTROPHIL [3]: 11.78% | PLATELET COUNT [3]: 1311.4 x10E3/uL | ALANINE AMINOTRANSFERASE [4]: 24.8 u/L | ALBUMIN [4]: 3.58 G/DL | ALKALINE PHOSPHATASE [4]: 148 u/L | ASPARTATE AMINOTRANSFERASE [4]: 65.4 u/L | BLOOD UREA NITROGEN [4]: 10.6 mg/dL | CHLORIDE [4]: 104 MEQ/L | CHOLESTEROL [4]: 54.8 mg/dL | CREATINE PHOSPHOKINASE [4]: 83.2 u/L | CREATININE [4]: 0.44 mg/dL | GLUCOSE [4]: 147.6 mg/dL | LACTATE DEHYDROGENASE [4]: 39.8 u/L | LIPASE [4]: 39.2 u/L | PHOSPHORUS [4]: 9.54 mg/dL | POTASSIUM [4]: 5.96 MEQ/L | SODIUM [4]: 151.6 MEQ/L | TOTAL BILIRUBIN [4]: 0.2 mg/dL | TOTAL PROTEIN [4]: 6.34 G/DL | URIC ACID [4]: 0.22 mg/dL | BASOPHIL [5]: 0.47% | EOSINOPHIL [5]: 0.5% | ERYTHROCYTE COUNT [5]: 7.09 x10E6/uL | HEMATOCRIT [5]: 44.53% | HEMOGLOBIN [5]: 14.13 G/DL | LEUKOCYTE COUNT [5]: 11.43 x10E3/uL | LYMPHOCYTE [5]: 82.93% | MEAN CORPUSCULAR HEMOGLOBIN [5]: 20 pg | MEAN CORPUSCULAR HEMOGLOBIN CONCENTRATION [5]: 31.8 G/DL | MEAN CORPUSCULAR VOLUME [5]: 62.87 fL | MONOCYTE [5]: 2.37% | NEUTROPHIL [5]: 12.8% | PLATELET COUNT [5]: 1540.67 x10E3/uL | ALANINE AMINOTRANSFERASE [6]: 38.33 u/L | ALBUMIN [6]: 3.6 G/DL | ALKALINE PHOSPHATASE [6]: 343.33 u/L | ASPARTATE AMINOTRANSFERASE [6]: 60 u/L | BLOOD UREA NITROGEN [6]: 12 mg/dL | CHLORIDE [6]: 103 MEQ/L | CHOLESTEROL [6]: 88.33 mg/dL | CREATINE PHOSPHOKINASE [6]: 181.33 u/L | CREATININE [6]: 0.4 mg/dL | GLUCOSE [6]: 183.67 mg/dL | PHOSPHORUS [6]: 13.1 mg/dL | POTASSIUM [6]: 6.53 MEQ/L | SODIUM [6]: 148.33 MEQ/L | TOTAL BILIRUBIN [6]: 0.33 mg/dL | TOTAL PROTEIN [6]: 5.93 G/DL | BASOPHIL [7]: 0.47% | EOSINOPHIL [7]: 0.23% | ERYTHROCYTE COUNT [7]: 7.01 x10E6/uL | HEMATOCRIT [7]: 45.3% | HEMOGLOBIN [7]: 14.33 G/DL | LEUKOCYTE COUNT [7]: 13.09 x10E3/uL | LYMPHOCYTE [7]: 85.1% | MEAN CORPUSCULAR HEMOGLOBIN [7]: 20.47 pg | MEAN CORPUSCULAR HEMOGLOBIN CONCENTRATION [7]: 31.6 G/DL | MEAN CORPUSCULAR VOLUME [7]: 64.6 fL | MONOCYTE [7]: 2.03% | NEUTROPHIL [7]: 11.33% | PLATELET COUNT [7]: 977.33 x10E3/uL | ALANINE AMINOTRANSFERASE [8]: 39.33 u/L | ALBUMIN [8]: 3.63 G/DL | ALKALINE PHOSPHATASE [8]: 300 u/L | ASPARTATE AMINOTRANSFERASE [8]: 62.33 u/L | BLOOD UREA NITROGEN [8]: 12.33 mg/dL | CHLORIDE [8]: 101.67 MEQ/L | CHOLESTEROL [8]: 84.33 mg/dL | CREATINE PHOSPHOKINASE [8]: 173.33 u/L | CREATININE [8]: 0.43 mg/dL | GLUCOSE [8]: 173.33 mg/dL | PHOSPHORUS [8]: 12.97 mg/dL | POTASSIUM [8]: 6.93 MEQ/L | SODIUM [8]: 149.33 MEQ/L | TOTAL BILIRUBIN [8]: 0.5 mg/dL | TOTAL PROTEIN [8]: 6.07 G/DL | BASOPHIL [9]: 0.37% | EOSINOPHIL [9]: 0.47% | ERYTHROCYTE COUNT [9]: 6.77 x10E6/uL | HEMATOCRIT [9]: 41.33% | HEMOGLOBIN [9]: 12.93 G/DL | LEUKOCYTE COUNT [9]: 11.64 x10E3/uL | LYMPHOCYTE [9]: 80.13% | MEAN CORPUSCULAR HEMOGLOBIN [9]: 19.13 pg | MEAN CORPUSCULAR HEMOGLOBIN CONCENTRATION [9]: 31.33 G/DL | MEAN CORPUSCULAR VOLUME [9]: 61.07 fL | MONOCYTE [9]: 2.43% | NEUTROPHIL [9]: 15.43% | PLATELET COUNT [9]: 1395 x10E3/uL | ALANINE AMINOTRANSFERASE [10]: 38.67 u/L | ALBUMIN [10]: 3.43 G/DL | ALKALINE PHOSPHATASE [10]: 312.67 u/L | ASPARTATE AMINOTRANSFERASE [10]: 58.67 u/L | BLOOD UREA NITROGEN [10]: 10.67 mg/dL | CHLORIDE [10]: 103.33 MEQ/L | CHOLESTEROL [10]: 75 mg/dL | CREATINE PHOSPHOKINASE [10]: 168.33 u/L | CREATININE [10]: 0.3 mg/dL | GLUCOSE [10]: 187.33 mg/dL | PHOSPHORUS [10]: 12.63 mg/dL | POTASSIUM [10]: 7.03 MEQ/L | SODIUM [10]: 147 MEQ/L | TOTAL BILIRUBIN [10]: 0.27 mg/dL | TOTAL PROTEIN [10]: 5.57 G/DL | BASOPHIL [11]: 0.5% | EOSINOPHIL [11]: 0.27% | ERYTHROCYTE COUNT [11]: 7.05 x10E6/uL | HEMATOCRIT [11]: 43.57% | HEMOGLOBIN [11]: 13.87 G/DL | LEUKOCYTE COUNT [11]: 16.09 x10E3/uL | LYMPHOCYTE [11]: 87.33% | MEAN CORPUSCULAR HEMOGLOBIN [11]: 19.67 pg | MEAN CORPUSCULAR HEMOGLOBIN CONCENTRATION [11]: 31.8 G/DL | MEAN CORPUSCULAR VOLUME [11]: 61.9 fL | MONOCYTE [11]: 1.77% | NEUTROPHIL [11]: 8.93% | PLATELET COUNT [11]: 1151.33 x10E3/uL | ALANINE AMINOTRANSFERASE [12]: 46 u/L | ALBUMIN [12]: 3.5 G/DL | ALKALINE PHOSPHATASE [12]: 413.67 u/L | ASPARTATE AMINOTRANSFERASE [12]: 68 u/L | BLOOD UREA NITROGEN [12]: 12 mg/dL | CHLORIDE [12]: 102.33 MEQ/L | CHOLESTEROL [12]: 85.67 mg/dL | CREATINE PHOSPHOKINASE [12]: 209.67 u/L | CREATININE [12]: 0.4 mg/dL | GLUCOSE [12]: 184.33 mg/dL | PHOSPHORUS [12]: 12.77 mg/dL | POTASSIUM [12]: 6.53 MEQ/L | SODIUM [12]: 148.67 MEQ/L | TOTAL BILIRUBIN [12]: 0.4 mg/dL | TOTAL PROTEIN [12]: 5.8 G/DL

From ChEMBL document CHEMBL3885881, “DrugMatrix”
